Reference: ChEMBL document CHEMBL1155053, “Discovery of new Gram-negative antivirulence drugs: structure and properties of novel E. coli WaaC inhibitors” (Bioorg Med Chem Lett, 2008)

Experiment: Inhibition of Escherichia coli heptosyltransferase Waac

Structure (SMILES)	IC50
COC(=O)c1cccc(N2N=C(C)/C(=C/c3ccc(-c4cccc(C(=O)O)c4)o3)C2=O)c1 (mixture of isomers)	> 100 µM
COC(=O)c1cccc(-c2ccc(/C=C3\C(=O)N(c4cccc(C(=O)O)c4)N=C3C)o2)c1 (mixture of isomers)	49 µM
CC1=NN(c2cccc(C)c2)C(=O)/C1=C\c1ccc(-c2cccc(C(=O)O)c2)o1 (mixture of isomers)	> 100 µM
CC1=NN(c2ccc(C(=O)O)cc2)C(=O)/C1=C\c1ccc(-c2ccc(C(=O)O)cc2)o1 (mixture of isomers)	51 µM
CC1=NN(c2cccc(C(=O)O)c2)C(=O)/C1=C\c1ccc(-c2ccc(S(N)(=O)=O)cc2)o1 (mixture of isomers)	> 100 µM
CC1=NN(c2ccc(C(=O)O)cc2)C(=O)/C1=C\c1ccc(-c2cccc(C(N)=O)c2)o1 (mixture of isomers)	18 µM
CC1=NN(c2ccc(C(=O)O)cc2)C(=O)/C1=C\c1ccc(-c2ccccc2)o1	55 µM

Second part, the compound after the results:

IC50	Structure (SMILES)
> 100 µM	CC1=NN(c2ccccc2)C(=O)/C1=C\c1ccc(-c2ccc(Cl)c(C(=O)O)c2)o1 (mixture of isomers)
15 µM	CC(=O)c1cccc(-c2ccc(/C=C3\C(=O)N(c4cccc(C(=O)O)c4)N=C3C)o2)c1 (mixture of isomers)
31 µM	CC1=NN(c2cccc(C(=O)O)c2)C(=O)/C1=C\c1ccc(-c2ccc(C(=O)O)c(C)c2)o1
2 µM	CC1=NN(c2cccc(C(=O)O)c2)C(=O)/C1=C\c1ccc(-c2cccc(C(=O)O)c2)o1 (mixture of isomers)
3.1 µM	CC1=NN(c2ccc(C(=O)O)cc2)C(=O)/C1=C\c1ccc(-c2ccc(Cl)c(C(=O)O)c2)o1
1 µM	CC1=NN(c2cccc(C(=O)O)c2)C(=O)/C1=C\c1ccc(-c2ccc(Cl)c(C(=O)O)c2)o1 (mixture of isomers)
3 µM	CC1=NN(c2cccc(C(=O)O)c2)C(=O)/C1=C\c1ccc(-c2ccc(C(=O)O)cc2)o1
